# From ChEMBL document CHEMBL2440080, “Synthesis and biological evaluation of novel acylhydrazone derivatives as potential antitumor agents” (Bioorg Med Chem, 2013)
# Key:
# PC-3 = experiment: Cytotoxicity against human PC3 cells after 48 hrs by sulforhodamine B assay; assay type: functional; conditions: PC-3, 48 h
# U-251 = experiment: Cytotoxicity against human U251 cells after 48 hrs by sulforhodamine B assay; assay type: functional; conditions: U-251, 48 h
# NCI-H226 = experiment: Cytotoxicity against human NCI-H226 cells after 48 hrs by sulforhodamine B assay; assay type: functional; conditions: NCI-H226, 48 h
# OVCAR-3 = experiment: Cytotoxicity against human OVCAR3 cells after 48 hrs by sulforhodamine B assay; assay type: functional; conditions: OVCAR-3, 48 h
# OVCAR-5 = experiment: Cytotoxicity against human OVCAR5 cells after 48 hrs by sulforhodamine B assay; assay type: functional; conditions: OVCAR-5, 48 h
# NCI-H522 = experiment: Cytotoxicity against human NCI-H522 cells after 48 hrs by sulforhodamine B assay; assay type: functional; conditions: NCI-H522, 48 h
# NCI-H460 = experiment: Cytotoxicity against human NCI-H460 cells after 48 hrs by sulforhodamine B assay; assay type: functional; conditions: NCI-H460, 48 h
# ACHN = experiment: Cytotoxicity against human ACHN cells after 48 hrs by sulforhodamine B assay; assay type: functional
# TK-10 = experiment: Cytotoxicity against human TK10 cells after 48 hrs by sulforhodamine B assay; assay type: functional; conditions: TK-10, 48 h
# HCT-116 = experiment: Cytotoxicity against human HCT116 cells after 48 hrs by sulforhodamine B assay; assay type: functional; conditions: HCT-116, 48 h
# A549 = experiment: Cytotoxicity against human A549/ATCC cells after 48 hrs by sulforhodamine B assay; assay type: functional; conditions: A549, 48 h
# CCRF-CEM = experiment: Cytotoxicity against human CCRF-CEM cells after 48 hrs by sulforhodamine B assay; assay type: functional
# SNB-19 = experiment: Cytotoxicity against human SNB19 cells after 48 hrs by sulforhodamine B assay; assay type: functional; conditions: SNB-19, 48 h
# MCF7 = experiment: Cytotoxicity against human MCF7 cells after 48 hrs by sulforhodamine B assay; assay type: functional; conditions: MCF7, 48 h
# NCI/ADR-RES = experiment: Cytotoxicity against human NCI/ADR-RES cells after 48 hrs by sulforhodamine B assay; assay type: functional
# CAKI-1 = experiment: Cytotoxicity against human CAKI-1 cells after 48 hrs by sulforhodamine B assay; assay type: functional; conditions: CAKI-1, 48 h
# A498 = experiment: Cytotoxicity against human A498 cells after 48 hrs by sulforhodamine B assay; assay type: functional; conditions: A498, 48 h
# UO-31 = experiment: Cytotoxicity against human UO31 cells after 48 hrs by sulforhodamine B assay; assay type: functional; conditions: UO-31, 48 h
# T47D = experiment: Cytotoxicity against human T47D cells after 48 hrs by sulforhodamine B assay; assay type: functional
# RXF 393 = experiment: Cytotoxicity against human RXF393 cells after 48 hrs by sulforhodamine B assay; assay type: functional; conditions: RXF 393, 48 h
# HT-29 = experiment: Cytotoxicity against human HT-29 cells after 48 hrs by sulforhodamine B assay; assay type: functional; conditions: HT-29, 48 h
# SK-MEL-2 = experiment: Cytotoxicity against human SK-MEL-2 cells after 48 hrs by sulforhodamine B assay; assay type: functional; conditions: SK-MEL-2, 48 h
# 786-0 = experiment: Cytotoxicity against human 786-0 cells after 48 hrs by sulforhodamine B assay; assay type: functional; conditions: 786-0, 48 h
# SK-OV-3 = experiment: Cytotoxicity against human SKOV3 cells after 48 hrs by sulforhodamine B assay; assay type: functional; conditions: SK-OV-3, 48 h
# [1] = Cytotoxicity against human EKVX cells after 48 hrs by sulforhodamine B assay; assay type: functional
# [2] = Cytotoxicity against human Hs 578T cells after 48 hrs by sulforhodamine B assay; assay type: functional
# OVCAR-4 = experiment: Cytotoxicity against human OVCAR4 cells after 48 hrs by sulforhodamine B assay; assay type: functional; conditions: OVCAR-4, 48 h
# BT-549 = experiment: Cytotoxicity against human BT549 cells after 48 hrs by sulforhodamine B assay; assay type: functional; conditions: BT-549, 48 h
# SNB-75 = experiment: Cytotoxicity against human SNB75 cells after 48 hrs by sulforhodamine B assay; assay type: functional; conditions: SNB-75, 48 h
# SK-MEL-5 = experiment: Cytotoxicity against human SK-MEL-5 cells after 48 hrs by sulforhodamine B assay; assay type: functional; conditions: SK-MEL-5, 48 h
# MDA-MB-435 = experiment: Cytotoxicity against human MDA-MB-435 cells after 48 hrs by sulforhodamine B assay; assay type: functional; conditions: MDA-MB-435, 48 h
# HCT-15 = experiment: Cytotoxicity against human HCT15 cells after 48 hrs by sulforhodamine B assay; assay type: functional; conditions: HCT-15, 48 h
# IGROV-1 = experiment: Cytotoxicity against human IGROV1 cells after 48 hrs by sulforhodamine B assay; assay type: functional; conditions: IGROV-1, 48 h
# NCI-H322M = experiment: Cytotoxicity against human NCI-H322M cells after 48 hrs by sulforhodamine B assay; assay type: functional
# SN12C = experiment: Cytotoxicity against human SN12C cells after 48 hrs by sulforhodamine B assay; assay type: functional
# SW-620 = experiment: Cytotoxicity against human SW620 cells after 48 hrs by sulforhodamine B assay; assay type: functional; conditions: SW-620, 48 h
# SF-268 = experiment: Cytotoxicity against human SF268 cells after 48 hrs by sulforhodamine B assay; assay type: functional; conditions: SF-268, 48 h
# KM12 = experiment: Cytotoxicity against human KM12 cells after 48 hrs by sulforhodamine B assay; assay type: functional; conditions: KM12, 48 h
# SF-539 = experiment: Cytotoxicity against human SF539 cells after 48 hrs by sulforhodamine B assay; assay type: functional; conditions: SF-539, 48 h
# Malme-3M = experiment: Cytotoxicity against human MALME-3M cells after 48 hrs by sulforhodamine B assay; assay type: functional
# NCI-H23 = experiment: Cytotoxicity against human NCI-H23 cells after 48 hrs by sulforhodamine B assay; assay type: functional; conditions: NCI-H23, 48 h
# RPMI-8226 = experiment: Cytotoxicity against human RPMI8226 cells after 48 hrs by sulforhodamine B assay; assay type: functional; conditions: RPMI-8226, 48 h
# LOX IMVI = experiment: Cytotoxicity against human LOXIMVI cells after 48 hrs by sulforhodamine B assay; assay type: functional
# HCC 2998 = experiment: Cytotoxicity against human HCC2998 cells after 48 hrs by sulforhodamine B assay; assay type: functional; conditions: HCC 2998, 48 h
# HOP-62 = experiment: Cytotoxicity against human HOP62 cells after 48 hrs by sulforhodamine B assay; assay type: functional; conditions: HOP-62, 48 h
# COLO 205 = experiment: Cytotoxicity against human COLO205 cells after 48 hrs by sulforhodamine B assay; assay type: functional; conditions: COLO 205, 48 h
# MDA-MB-231 = experiment: Cytotoxicity against human MDA-MB-231 cells after 48 hrs by sulforhodamine B assay; assay type: functional; conditions: MDA-MB-231, 48 h
# DU-145 = experiment: Cytotoxicity against human DU145 cells after 48 hrs by sulforhodamine B assay; assay type: functional; conditions: DU-145, 48 h
# OVCAR-8 = experiment: Cytotoxicity against human OVCAR8 cells after 48 hrs by sulforhodamine B assay; assay type: functional; conditions: OVCAR-8, 48 h
# SK-MEL-28 = experiment: Cytotoxicity against human SK-MEL-28 cells after 48 hrs by sulforhodamine B assay; assay type: functional; conditions: SK-MEL-28, 48 h
# MOLT-4 = experiment: Cytotoxicity against human MOLT4 cells after 48 hrs by sulforhodamine B assay; assay type: functional; conditions: MOLT-4, 48 h
# UACC-257 = experiment: Cytotoxicity against human UACC257 cells after 48 hrs by sulforhodamine B assay; assay type: functional; conditions: UACC-257, 48 h
# UACC-62 = experiment: Cytotoxicity against human UACC62 cells after 48 hrs by sulforhodamine B assay; assay type: functional; conditions: UACC-62, 48 h
# SR = experiment: Cytotoxicity against human SR cells after 48 hrs by sulforhodamine B assay; assay type: functional
# SF-295 = experiment: Cytotoxicity against human SF295 cells after 48 hrs by sulforhodamine B assay; assay type: functional; conditions: SF-295, 48 h
# HOP-92 = experiment: Cytotoxicity against human HOP92 cells after 48 hrs by sulforhodamine B assay; assay type: functional; conditions: HOP-92, 48 h
# M14 = experiment: Cytotoxicity against human M14 cells after 48 hrs by sulforhodamine B assay; assay type: functional; conditions: M14, 48 h
# HL-60(TB) = experiment: Cytotoxicity against human HL-60(TB) cells after 48 hrs by sulforhodamine B assay; assay type: functional; conditions: HL-60, 48 h
# Mus musculus = experiment: Toxicity in athymic nude mouse assessed as survival at 400 mg/kg, ip measured after 2 weeks; assay type: organism-based; design: dose 400 mg/kg, route intraperitoneal; conditions: in vivo, 336 h
smiles,measurement,setting,value
CCN(CC)c1ccc(/C=N/NC(=O)c2cccc(Nc3ccnc(C(F)(F)F)c3)c2)c(O)c1,GI50,PC-3,741 nM
same,GI50,U-251,200 nM
same,GI50,NCI-H226,372 nM
same,GI50,OVCAR-3,794 nM
same,GI50,OVCAR-5,501 nM
same,GI50,NCI-H522,407 nM
same,GI50,NCI-H460,200 nM
same,GI50,ACHN,245 nM
same,GI50,TK-10,501 nM
same,GI50,HCT-116,126 nM
same,GI50,A549,389 nM
same,GI50,CCRF-CEM,141 nM
same,GI50,SNB-19,339 nM
same,GI50,MCF7,245 nM
same,GI50,NCI/ADR-RES,1000 nM
same,GI50,CAKI-1,200 nM
same,GI50,A498,479 nM
same,GI50,UO-31,166 nM
same,GI50,T47D,631 nM
same,GI50,RXF 393,398 nM
same,GI50,HT-29,339 nM
same,GI50,SK-MEL-2,407 nM
same,GI50,786-0,240 nM
same,GI50,SK-OV-3,407 nM
same,GI50,[1],224 nM
same,GI50,[2],182 nM
same,GI50,OVCAR-4,158 nM
same,GI50,BT-549,501 nM
same,GI50,SNB-75,257 nM
same,GI50,SK-MEL-5,224 nM
same,GI50,MDA-MB-435,339 nM
same,GI50,HCT-15,126 nM
same,GI50,IGROV-1,200 nM
same,GI50,NCI-H322M,200 nM
same,GI50,SN12C,309 nM
same,GI50,SW-620,324 nM
same,GI50,SF-268,100 nM
same,GI50,KM12,398 nM
same,GI50,SF-539,263 nM
same,GI50,Malme-3M,339 nM
same,GI50,NCI-H23,646 nM
same,GI50,RPMI-8226,158 nM
same,GI50,LOX IMVI,178 nM
same,GI50,HCC 2998,182 nM
same,GI50,HOP-62,251 nM
same,GI50,COLO 205,282 nM
same,GI50,MDA-MB-231,316 nM
same,GI50,DU-145,251 nM
same,GI50,OVCAR-8,398 nM
same,GI50,SK-MEL-28,115 nM
same,GI50,MOLT-4,195 nM
same,GI50,UACC-257,275 nM
same,GI50,UACC-62,251 nM
same,GI50,SR,200 nM
same,GI50,SF-295,324 nM
same,GI50,HOP-92,1000 nM
same,GI50,M14,229 nM
same,GI50,HL-60(TB),316 nM
CCOc1cccc(/C=N/NC(=O)c2ccccc2Nc2ccnc(C(F)(F)F)c2)c1O,GI50,PC-3,200 nM
same,GI50,U-251,398 nM
same,GI50,OVCAR-3,316 nM
same,GI50,NCI-H460,251 nM
same,GI50,ACHN,316 nM
same,GI50,TK-10,631 nM
same,GI50,HCT-116,316 nM
same,GI50,CCRF-CEM,251 nM
same,GI50,NCI/ADR-RES,631 nM
same,GI50,CAKI-1,251 nM
same,GI50,T47D,794 nM
same,GI50,RXF 393,12600 nM
same,GI50,[1],251 nM
same,GI50,OVCAR-4,251 nM
same,GI50,BT-549,398 nM
same,GI50,SNB-75,398 nM
same,GI50,HCT-15,251 nM
same,GI50,IGROV-1,39.8 nM
same,GI50,NCI-H322M,398 nM
same,GI50,SF-268,794 nM
same,GI50,KM12,501 nM
same,Activity,Mus musculus,Non-toxic
same,GI50,RPMI-8226,251 nM
same,GI50,LOX IMVI,200 nM
same,GI50,HOP-62,501 nM
same,GI50,DU-145,794 nM
same,GI50,OVCAR-8,501 nM
same,GI50,MOLT-4,126 nM
same,GI50,UACC-62,501 nM
same,GI50,SR,63.1 nM
same,GI50,SF-295,501 nM
same,GI50,HOP-92,158 nM
same,GI50,M14,631 nM
same,GI50,HL-60(TB),251 nM
O=C(N/N=C/c1ccccc1O)c1ccccc1Nc1ccnc(C(F)(F)F)c1,GI50,PC-3,126 nM
same,GI50,U-251,501 nM
same,GI50,OVCAR-3,316 nM
same,GI50,NCI-H460,251 nM
same,GI50,ACHN,398 nM
same,GI50,TK-10,501 nM
same,GI50,HCT-116,398 nM
same,GI50,CCRF-CEM,200 nM
same,GI50,NCI/ADR-RES,398 nM
same,GI50,CAKI-1,316 nM
same,GI50,T47D,1260 nM
same,GI50,RXF 393,63.1 nM
same,GI50,[1],316 nM
same,GI50,OVCAR-4,251 nM
same,GI50,BT-549,631 nM
same,GI50,SNB-75,316 nM
same,GI50,HCT-15,200 nM
same,GI50,IGROV-1,15.8 nM
same,GI50,NCI-H322M,398 nM
same,GI50,SF-268,631 nM
same,GI50,KM12,398 nM
same,Activity,Mus musculus,Non-toxic
same,GI50,RPMI-8226,200 nM
same,GI50,LOX IMVI,316 nM
same,GI50,HOP-62,398 nM
same,GI50,DU-145,631 nM
same,GI50,OVCAR-8,501 nM
same,GI50,MOLT-4,316 nM
same,GI50,UACC-62,398 nM
same,GI50,SR,50.1 nM
same,GI50,SF-295,501 nM
same,GI50,HOP-92,158 nM
same,GI50,M14,501 nM
same,GI50,HL-60(TB),398 nM
